pEC50: −log10 of the molar value.
Legend:
Hexokinase-4 [1] = biological target: T1, Hexokinase-4 (Homo sapiens, UniProt P35557)
T1 sequence (P35557 whole entry): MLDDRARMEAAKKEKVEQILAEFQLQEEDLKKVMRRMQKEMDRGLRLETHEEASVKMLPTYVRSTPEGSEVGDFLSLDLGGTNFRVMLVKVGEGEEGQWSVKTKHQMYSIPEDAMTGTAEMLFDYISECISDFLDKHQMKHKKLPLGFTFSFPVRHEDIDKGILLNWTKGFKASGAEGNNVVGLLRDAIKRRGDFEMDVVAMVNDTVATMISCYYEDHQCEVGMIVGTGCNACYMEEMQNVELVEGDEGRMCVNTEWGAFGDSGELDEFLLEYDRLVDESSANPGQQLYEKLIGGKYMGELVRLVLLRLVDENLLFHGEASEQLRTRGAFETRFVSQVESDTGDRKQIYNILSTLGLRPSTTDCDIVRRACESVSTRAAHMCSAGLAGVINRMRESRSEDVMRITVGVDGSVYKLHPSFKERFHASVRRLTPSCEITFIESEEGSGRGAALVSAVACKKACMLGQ

Hexokinase-4 [2] = biological target: T1, Hexokinase-4; remark: listed apart in the source
Rattus norvegicus = assay: Glucose lowering effect in po dosed Wistar rat assessed as decrease in plasma glucose level administered 30 mins before glucose challenge by OGTT; format: functional, organism-based
[3] = Cmax in Wistar rat at 1 mg/kg, iv and 3 mg/kg, po; format: ADME, organism-based; settings: in vivo
[4] = Oral bioavailability in Wistar rat at 3 mg/kg; format: ADME, organism-based; settings: in vivo
[5] = Volume of distribution in Wistar rat at 1 mg/kg, iv and 3 mg/kg, po; format: ADME, organism-based; settings: in vivo
[6] = Half life in Wistar rat at 1 mg/kg, iv; format: ADME, organism-based; design: dose 1 mg/kg, route intravenous; settings: in vivo
[7] = Tmax in Wistar rat at 1 mg/kg, iv and 3 mg/kg, po; format: ADME, organism-based; settings: in vivo
[8] = Clearance in Wistar rat at 1 mg/kg, iv and 3 mg/kg, po; format: ADME, organism-based; settings: in vivo

Compound | pEC50 (Hexokinase-4 [1]) | pEC50 (Hexokinase-4 [2]) | other results
Cn1cnnc1Sc1ccc(N)c(C(=O)Nc2nc(CO)cs2)c1 | 5.80 | 6.38 | –
Cc1csc(NC(=O)c2cc(Sc3nnc[nH]3)ccc2N)n1 | 5.62 | 6.27 | –
Cc1csc(NC(=O)c2cc(Sc3nncn3C)ccc2[N+](=O)[O-])n1 | < 5.00 | < 5.00 | –
Cc1csc(NC(=O)c2cccc(Sc3nncn3C)c2)n1 | 5.14 | 5.82 | –
COc1ccccc1Oc1ccc(N)c(C(=O)Nc2nc(C)cs2)c1 | 6.39 | 6.92 | –
Cn1cnnc1Sc1ccc(N)c(C(=O)Nc2ccccc2)c1 | < 5.00 | < 5.00 | –
Cc1csc(NC(=O)c2cc(Oc3cccc(F)c3)ccc2N)n1 | 6.22 | 6.85 | –
Cn1cnnc1Sc1ccc(N)c(C(=O)Nc2ccncc2)c1 | < 5.00 | < 5.00 | –
Cc1csc(NC(=O)c2ccc(Cl)cc2N)n1 | < 4.52 | < 4.52 | –
Cn1cnnc1Sc1ccc(N)c(C(=O)Nc2ncns2)c1 | 6.31 | 6.92 | –
Cc1csc(NC(=O)c2cc(Sc3ncc[nH]3)ccc2N)n1 | 5.80 | 6.42 | –
Cc1csc(NC(=O)c2cc(Cl)ccc2N)n1 | 5.19 | 5.85 | –
Cn1cnnc1Sc1ccc(N)c(C(=O)Nc2nc(C(F)(F)F)cs2)c1 | 5.57 | 6.03 | –
Cc1csc(NC(=O)c2cc(Sc3ccccc3)ccc2N)n1 | 6.04 | 6.70 | –
Cc1csc(NC(=O)c2cc(Oc3ccccc3F)ccc2N)n1 | 6.59 | 7.00 | –
Cc1csc(NC(=O)c2cc(Oc3ccccc3)ccc2N)n1 | 6.15 | 6.89 | –

Compound | pEC50 (Hexokinase-4 [1]) | pEC50 (Hexokinase-4 [2]) | other results
Cc1csc(NC(=O)c2cc(Sc3nccn3C)ccc2N)n1 | 6.64 | 7.00 | –
Cc1csc(NC(=O)c2cccc(Cl)c2)n1 | 4.77 | 5.20 | –
Nc1ccccc1C(=O)Nc1nccs1 | < 4.52 | < 4.52 | –
CCOc1ccc(N)c(C(=O)Nc2nc(C)cs2)c1 | 5.17 | 5.77 | –
Cn1cnnc1Sc1ccc(N)c(C(=O)Nc2ccccn2)c1 | 5.92 | 6.64 | –
Cc1csc(NC(=O)c2cc(Oc3ccccc3S(C)(=O)=O)ccc2N)n1 | 6.29 | 6.89 | –
Cn1cnnc1Sc1ccc(N)c(C(=O)Nc2nccs2)c1 | 6.46 | 6.89 | –
Cc1cnc(NC(=O)c2cc(Sc3nncn3C)ccc2N)s1 | 6.48 | 6.96 | –
Cn1cnnc1Sc1ccc(N)c(C(=O)Nc2cccnc2)c1 | < 5.00 | < 5.00 | –
Cc1csc(NC(=O)c2cc(Oc3ccc(F)cc3)ccc2N)n1 | 5.77 | 6.40 | –
Cc1csc(NC(=O)c2cc(Sc3ccccn3)ccc2N)n1 | 5.92 | 6.66 | –
Cc1csc(NC(=O)c2cc(Sc3nncn3C)ccc2N)n1 | – | – | Activity (Rattus norvegicus): Dose-dependent effect; Cmax [3]: 8.5 µM; bioavailability [4]: 100%; Vd [5]: 0.4 L/kg; half-life [6]: 54 min; Tmax [7]: 30 min; clearance [8]: 14.3 mL/min/kg
Nc1ccc(Cl)cc1C(=O)Nc1nccs1 | 4.96 | 5.59 | –
CCSc1ccc(N)c(C(=O)Nc2nc(C)cs2)c1 | 6.11 | 6.74 | –
Cc1nsc(NC(=O)c2cc(Sc3nncn3C)ccc2N)n1 | 6.19 | 6.74 | –
CCOC(=O)c1csc(NC(=O)c2cc(Sc3nncn3C)ccc2N)n1 | 5.96 | 6.38 | –

— ChEMBL document CHEMBL1152887, “Identification of novel and potent 2-amino benzamide derivatives as allosteric glucokinase activators” (Bioorg Med Chem Lett, 2009)
